# US20160320368A1, “METHOD AND APPARATUS FOR PREDICTING EFFECTIVE DOSE OR SENSITIVITY OF 5-HYDROXY-1H-IMIDAZOLE-4-CARBOXAMIDE, METHOD FOR DETERMINING AMOUNT OF XANTHOSINE MONOPHOSPHATE, AND TREATMENT AGENT AND METHOD FOR TREATING MYELODYSPLASTIC SYNDROME” (FUJIFILM Corporation, priority 2014, published 2016)
# Tests used:
# GTP in whole blood = GTP in whole blood (Example 8); assay type: cell-based, human; conditions: 37° C., 8 hours, non-treated = 100%
# Protocol: (§1) A ¾ hydrate of Compound A was used as a test compound.
# (§2) 450 μL of the blood collected from healthy individuals by heparinized blood collection was added to each tube, and 50 μL of a PBS solution of the test compound (0 μg/mL, 1 μg/mL, 10 μg/mL, or 100 μg/mL in terms of Compound A) for each concentration was added to each tube. The reaction mixture was stirred in an incubator at 37° C. for 8 hours.
# (§3) 400 μL of methanol was added to 100 μL of the blood sample obtained in (1). After stirring, 400 μL of chloroform was added, followed by further stirring. 120 μL of ultrapure water was added thereto, followed by stirring and then centrifugation at 4° C. and 10000×g for 15 min. 400 μL of the aqueous phase was recovered and added to an ultrafiltration tube, followed by centrifugation at 12° C. and 9200×g for 2 hours. The filtrate was dried under reduced pressure at 40° C. for 2 hours by using a centrifugal evaporator. After drying, the resulting product was stored in a freezer at −80° C.
# (§4) The samples obtained in (2) were returned to room temperature and 40 μL of ultrapure water was added to each sample. The mixture was stirred and centrifuged at 4° C. and 21500×g for 5 min. 35 μL of the supernatant was transferred to a vial. After storage at 4° C., XMP, GMP and GTP in the samples were determined in the LC-MS/MS determination instrument and LC conditions described in Example 3 (3), and MS/MS conditions shown in Table 15.
# (§5) Amounts of XMP, GMP and GTP (%) were calculated assuming that the XMP, GMP and GTP values of a non-Compound A treated group (peak area value) are defined as 100%.
# GMP in whole blood = GMP in whole blood (Example 8); assay type: cell-based, human; conditions: 37° C., 8 hours, non-treated = 100%
# Protocol: as §1, §2, §3, §4, §5
# XMP in blood cells = XMP in blood cells of mice after oral administration; assay type: in vivo, female mice (BALB/cAJcl); conditions: 100 mg/kg oral, non-treated = 100%
# Protocol: as §1
# 0.5% MC or 0.5% MC of the test compound (100 mg/kg in terms of Compound A) was orally administered to female mice (BALB/cAJcl).
# Whole blood was collected from the postcava of animals under anesthesia by isoflurane inhalation at 1, 4, 8 or 24 hours post-dose, using a polypropylene syringe treated with an ethylenediaminetetraacetic acid disodium salt and a 25 gauge injection needle. BD Pharm Lyse (555899, manufactured by Becton, Dickinson and Company, Inc.) was added to the blood (2 mL of BD Pharm Lyse was added relative to 0.2 mL of blood). After stirring with a vortex mixer, the reaction solution was protected from light and allowed to stand at room temperature for 15 min. After centrifugation at 20° C. and 1000×g for 5 min, the supernatant was removed and suspended in 10 mL of a PBS solution. After centrifugation at 4° C. and 1000×g for 5 min, the supernatant was removed, and 1000 μL of methanol was added to each tube, followed by stirring. Thereafter, 500 μL of ultrapure water was added thereto, followed by further stirring. 600 μL of the reaction solution was divided into each of two tubes, and 400 μL of chloroform was added to each tube. The reaction solution was stirred and then centrifuged at 4° C. and 10000×g for 15 min. 400 μL of the aqueous phase was recovered and added to an ultrafiltration tube, followed by centrifugation at 12° C. and 9200×g for 2 hours. The filtrates were combined and then dried under reduced pressure at 40° C. for 2 hours by using a centrifugal evaporator. After drying, the resulting product was stored in a freezer at −80° C.
# The samples obtained in (2-1) and (2-2) were returned to room temperature, and 40 μL of ultrapure water was added to the hemolysis sample and 150 μL of ultrapure water was added to the bone marrow sample. The mixture was stirred and then centrifuged at 4° C. and 21500×g for 5 min. For the hemolysis sample, 35 μL of the supernatant was transferred to a vial. For the bone marrow sample, 140 μL of the supernatant was transferred to a vial. After storage at 4° C., XMP in samples was determined in the LC-MS/MS determination instrument, LC conditions and MS/MS conditions described in Example 3 (3).
# Amounts of XMP (%) were calculated assuming that amounts of XMP in a non-Compound A treated group are defined as 100%.
# [1] = system: XMP in human myeloid leukemia cells K562; assay: XMP in human myeloid leukemia cells K562 (LC-MS/MS); assay type: cell-based; conditions: 24 hours, non-treated = 100%
# Protocol: as §1
# K562 (available from Riken BioResource Center) was used as a human myeloid leukemia cell.
# 2×10^7 human myeloid leukemia cells were suspended in a culture flask containing 18 mL of an RPMI1640 medium (manufactured by Life Technologies, Inc.). 2 mL of a PBS solution of the test compound (0 μg/mL, 10 μg/mL, 100 μg/mL, or 1000 μg/mL in terms of Compound A) was added to the flask which was then incubated at 37° C. under 5% CO2 for 24 hours. After centrifugation at 20° C. and 300×g for 3 min, the supernatant was removed and suspended in 10 mL of a PBS solution. Then, after centrifugation at 4° C. and 300×g for 5 min, the supernatant was removed. After stirring with addition of 1000 μL of methanol, 500 μL of ultrapure water was added thereto, followed by further stirring. 600 μL of the reaction solution was divided into each of two tubes, and 400 μL of chloroform was added to each tube. The reaction solution was stirred and then centrifuged at 4° C. and 10000×g for 15 min. 400 μL of the aqueous phase was recovered and added to an ultrafiltration tube, followed by centrifugation at 12° C. and 9200×g for 2 hours. The filtrates were combined and then dried under reduced pressure at 40° C. for 2 hours by using a centrifugal evaporator. After drying, the resulting product was stored in a freezer at −80° C.
# The samples stored in (1) and (2) were returned to room temperature and 40 μL of ultrapure water was added to each sample. The mixture was stirred and centrifuged at 4° C. and 21500×g for 5 min. 35 μL of the supernatant was transferred to a vial. After storage at 4° C., XMP in samples was determined in the LC-MS/MS determination instrument, LC conditions and MS/MS conditions described in Example 3 (3).
# Amounts of XMP (%) were calculated assuming that the XMP value of a non-Compound A treated group (peak area value) is defined as 100%.
compound,measurement,setting,value
"NC(=O)c1nc[nH]c1O [Compound A, 5-Hydroxy-1H-imidazole-4-carboxamide]",Amount of each compound in whole blood (%) GTP,GTP in whole blood; Compound A 1 μg/mL,89%
same,Amount of each compound in whole blood (%) GTP,GTP in whole blood; Compound A 10 μg/mL,86%
same,Amount of each compound in whole blood (%) GTP,GTP in whole blood; Compound A 100 μg/mL,79%
same,Amount of each compound in whole blood (%) GMP,GMP in whole blood; Compound A 1 μg/mL,85%
same,Amount of each compound in whole blood (%) GMP,GMP in whole blood; Compound A 10 μg/mL,85%
same,Amount of each compound in whole blood (%) GMP,GMP in whole blood; Compound A 100 μg/mL,91%
same,Amount of XMP (%) Blood cell,XMP in blood cells; 1 hr post-dose,3.4%
same,Amount of XMP (%) Blood cell,XMP in blood cells; 4 hr post-dose,7.2%
same,Amount of XMP (%) Blood cell,XMP in blood cells; 8 hr post-dose,26.4%
same,Amount of XMP (%) Blood cell,XMP in blood cells; 24 hr post-dose,70.7%
same,Amount of XMP (%) K562,[1]; Compound A 1 μg/mL,52%
same,Amount of XMP (%) K562,[1]; Compound A 10 μg/mL,15%
same,Amount of XMP (%) K562,[1]; Compound A 100 μg/mL,6%
